Measurements published in PubChem BioAssay AID1671416.

Molecular target: Proto-oncogene tyrosine-protein kinase Src (Homo sapiens) (UniProt P12931)
Experiment: PubChem AID 1671416
Conditions: Z'-LYTE FRET kinase activity, recombinant SRC

Chain of Proto-oncogene tyrosine-protein kinase Src (Homo sapiens) (P12931 whole entry, looked up): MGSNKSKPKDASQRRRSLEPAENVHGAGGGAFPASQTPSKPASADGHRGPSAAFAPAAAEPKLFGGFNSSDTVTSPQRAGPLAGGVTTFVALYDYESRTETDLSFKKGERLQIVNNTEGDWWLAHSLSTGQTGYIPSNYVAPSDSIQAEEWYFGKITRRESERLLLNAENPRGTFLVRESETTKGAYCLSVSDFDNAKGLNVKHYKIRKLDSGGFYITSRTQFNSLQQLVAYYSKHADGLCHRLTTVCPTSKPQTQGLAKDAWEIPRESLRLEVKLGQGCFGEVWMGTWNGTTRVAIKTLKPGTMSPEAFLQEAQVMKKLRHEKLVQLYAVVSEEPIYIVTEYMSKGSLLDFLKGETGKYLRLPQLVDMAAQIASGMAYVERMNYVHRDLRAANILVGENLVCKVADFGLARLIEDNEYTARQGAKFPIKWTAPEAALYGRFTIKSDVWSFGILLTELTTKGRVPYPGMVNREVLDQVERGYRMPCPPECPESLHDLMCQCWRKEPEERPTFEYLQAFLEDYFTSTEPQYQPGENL

IC50: 2450 nM
SMILES: COc1cc2ncnc(Nc3cccc(Cl)c3)c2cc1OC
